Reference: patent US20240180989A1, “LIGUSTRUM LUCIDUM EXTRACT USEFUL FOR THE TREATMENT AND/OR CARE OF THE SKIN” (Lubrizol Advanced Materials, Inc., priority 2021, published 2024)

Experiments:
arginase = assay: Arginase activity reduction in human epidermal keratinocytes (colorimetric Arginase Activity kit); assay type: cell-based; settings: 1 mM, donor
Experimental: Human epidermal keratinocytes (HEK) of donor (Tebu Bio), donor (Promocell) and donor (Promocell) are seeded in 6-well plates at a density of 3×10^5 cells/well in keratinocyte growth medium supplemented with Mix C39016-CaCl2 solution (Promocell). […] The donor's cells treated with S-(2-Boronoethyl)-L-cysteine hydrochloride (BEC, Sigma) 1 mM are used as positive control of arginase inhibition, and the donor's, donor's and 26-year-old donor's cells treated with medium alone are used as basal control of arginase activity at different ages. Treatment is continued for 24 hours. After 24 hours, cells are lysed and are analyzed by a colorimetric Arginase Activity kit (Abcam) according to manufacturer's instructions. […] Absorbance is measured by using a microplate reader (Clariostar, BMG) set to 570 nm in a kinetic mode for 30 minutes. […] Arginase activity is calculated in the exponential phase of the kinetic for each sample with the following equation: AOD═(OD2−ODBG2)−(OD1−ODBG1); where: OD1 and OD2 is the sample reading at time T1 and T2 respectively, ODBG1 and ODBG2 is the sample background reading at time T1 and T2 respectively.
Total protein amount of each sample is determined using a Pierce BCA protein assay kit (Thermo fisher) according to the manufacturer's protocol. […] Afterwards, color change is measured with an absorbance microplate reader (Clariostar, BMG) at 562 nm. […]

[1] = tested on: peroxynitrite production in Human epidermal keratinocytes (HEK); assay: Quantification of peroxynitrite production in human epidermal keratinocytes; assay type: cell-based; settings: 1 hour, per cell
Experimental: Human epidermal keratinocytes (HEK) are seeded in 96-well plates at a density of 3×10^4 cells/well in keratinocyte growth medium supplemented with Mix C39016-CaCl2 solution (Promocell). After 24 hours incubation, medium is replaced with fresh culture medium with scalar dilutions of the subcritical water extract at 160° C. of Example 2. Treatment is continued for 24 hours and cells treated with medium alone are used as basal control. After 24 hours incubation, peroxynitrite production is measured by a fluorescence approach with Peroxynitrite assay kit (Abcam) following the manufacturer's instructions. In brief, cells are treated with 10 μl/well sensor green working solution during 1 hour in the medium. Cells treated with SIN-1 (Sigma) 11 mM or 5.76 mM during 1 hour in combination with sensor green solution are used as a positive control of peroxynitrite production. SIN-1 (Sigma) is a nitric oxide donor. After 1-hour incubation, fluorescence is measured with an […] microplate reader (Clariostar, BMG) at excitation 490 nm and emission 530 nm. […] Cell nuclei number is determined with a confocal microscopy Operetta (PerkinElmer). Peroxynitrite fluorescence intensity is normalized to cell number for each condition.
The results in Table 8 are expressed as a percentage of peroxynitrite per cell normalized by basal condition.

| Structure (SMILES) | Arginase activity MEAN subtracting basal condition and normalizing respect basal condition of cells (arginase) | Arginase activity MEAN respect basal condition of cells (arginase; 24 h) | Peroxynitrite production MEAN respect basal condition ([1]; 5.76 mM) | Peroxynitrite production MEAN respect basal condition ([1]; 11 mM) |
| --- | --- | --- | --- | --- |
| Cl.N[C@@H](CSCCB(O)O)C(=O)O [BEC, S-(2-Boronoethyl)-L-cysteine hydrochloride] | −10.58% | 70.10% |  |  |
| [NH-]c1c[n+](N2CCOCC2)no1 [SIN-1] |  |  | 2379.00% | 1654.00% |
